For ten molecules, Ki results are on record in patent US6387930B1, “Piperidine derivatives useful as CCR5 antagonists” (Schering Corporation, priority 1999, dated 2002).

The target in the test is T1, human CCR5 chemokine receptor (Homo sapiens, UniProt P51681).
T1 construct: expressed in transfected cells; host or cells: NIH 3T3 cells (mouse fibroblasts), membrane preparation
T1 sequence (P51681 whole entry): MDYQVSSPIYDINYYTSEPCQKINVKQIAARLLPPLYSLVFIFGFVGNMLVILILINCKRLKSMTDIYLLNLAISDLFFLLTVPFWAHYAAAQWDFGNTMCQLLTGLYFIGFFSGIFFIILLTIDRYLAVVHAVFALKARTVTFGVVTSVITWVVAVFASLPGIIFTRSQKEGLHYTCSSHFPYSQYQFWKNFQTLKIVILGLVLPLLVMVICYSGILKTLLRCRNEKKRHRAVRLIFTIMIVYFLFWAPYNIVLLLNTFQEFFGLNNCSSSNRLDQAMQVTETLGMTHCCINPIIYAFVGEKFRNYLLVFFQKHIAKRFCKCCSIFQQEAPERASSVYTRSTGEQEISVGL
Kind of test: CCR5 membrane binding assay (inhibition of RANTES binding). The settings on record: membranes from NIH 3T3 cells expressing human CCR5; 125I-RANTES. As to the method:
CCR5 Membrane Binding Assay:
A high throughput screen utilizing a CCR5 membrane binding assay identifies inhibitors of RANTES binding. This assay utilizes membranes prepared from NIH 3T3 cells expressing the human CCR5 chemokine receptor which have the ability to bind to RANTES, a natural ligand for the receptor. Using a 96-well plate format, membrane preparations are incubated with ^125I-RANTES in the presence or absence of compound for one hour. Compounds are serially diluted over a wide range of 0.001 ug/ml to 1 ug/ml and tested in triplicates. Reaction cocktails are harvested through glass fiber filters, and washed thoroughly. Total counts for replicates are averaged and data reported as the concentration required to inhibit 50 percent of total ^125I-RANTES binding.
Molecule `Cc1ccnc(C)c1C(=O)N1CCC(C)(N2CCC(C(Oc3ccccn3)c3ccc(Br)cc3)CC2)CC1` (single isomer, unassigned) [Example 4B] had a Ki of 0.5 nM.

`Cc1cccc(C)c1C(=O)N1CCC(C)(N2CCC(C(Oc3nccs3)c3ccc(Br)cc3)CC2)CC1` (stereo not shown) [Example 1J] displayed a Ki of 1 nM.

As to `Cc1ccnc(C)c1C(=O)N1CCC(C)(N2CCC(C(Oc3ccccn3)c3ccc(C(F)(F)F)cc3)CC2)CC1` (stereo not shown) [Example 2G], the Ki was 1.8 nM.

For the molecule `CC1(N2CCC(C(Oc3ccccn3)c3ccc(C(F)(F)F)cc3)CC2)CCN(C(=O)c2c(Cl)cncc2Cl)CC1` (stereo not shown) [Example 2JJ], the Ki is 0.58 nM.

In turn, `Cc1ccnc(C)c1C(=O)N1CCC(C)(N2CCC(C(Oc3cnccn3)c3ccc(S(C)(=O)=O)cc3)CC2)CC1` (stereo not shown) [Example 2S] showed a Ki of 17.9 nM.

`CCO/N=C(\c1ccc(Br)cc1)C1CCN(C2(C)CCN(C(=O)c3c(C)cc(-c4ccncc4)cc3C)CC2)CC1` [Example 5AB] displayed a Ki of 0.1 nM.

Turning to `CO/N=C(\c1ccc(Br)cc1)C1CCN(C2(C)CCN(C(=O)c3c(C)ncnc3C)CC2)CC1` [Example 5L], the Ki was found to be 7.9 nM. Compared with the last molecule, the Ki is about 79-fold higher.

The molecule `CCO/N=C(\c1ccc(Br)cc1)C1CCN(C2(C)CCN(C(=O)c3c(C)ncnc3C)CC2)CC1` [Example 5N] returned a Ki of 1.7 nM.

The molecule `CCO/N=C(\c1ccc(C(F)(F)F)cc1)C1CCN(C2(C)CCN(C(=O)c3c(Cl)cncc3Cl)CC2)CC1` [Example 6V] returned a Ki of 0.8 nM. Compared with the last molecule, the Ki is about 2.1-fold lower.

As for `CC1(N2CCC(Cc3ccc(Br)cc3)CC2)CCN(C(=O)c2cccc3ccccc23)CC1` [Example 9D], the inhibition constant (Ki) was found to be 588 nM.

In general, Ki refers to a dissociation constant, usually derived from enzyme kinetics or from competition with a known ligand. A higher Ki goes with a looser hold on the target.
